Reference: patent US20240083857A1, “2-Methyl-Quinazolines” (Bayer Pharma Aktiengesellschaft, priority 2017, published 2024)
pIC50: −log10 of the molar value.

What was measured:
[1] = molecular target: K-Ras^G12C : hSOS1 interaction (Homo sapiens, UniProt Q07889); test: Biochemical assay 1: K-Ras^G12C interaction assay with hSOS1 (HTRF); assay type: binding; settings: read-out: Assay 1 (KRAS-SOS Interaction) activity expressed as IC50
[2] = molecular target: human SOS1 (loading of human K-Ras^G12C-GDP with fluorescent GTP-analog) (Homo sapiens, UniProt Q07889); test: Biochemical assay 3: K-Ras^G12C activation assay by hSOS1 (HTRF); settings: no GTP; read-out: Assay 3 (KRAS-Activation by SOS no GTP) activity expressed as IC50

Question: `COc1cc2nc(C)nc(NC(C)c3ccc(-c4ccccc4CN4CCOCC4)s3)c2cc1OC` (centres unmarked) [Example 311, 6,7-dimethoxy-2-methyl-N-[1-{5-[2-(morpholin-4-ylmethyl)phenyl]thiophen-2-yl}ethyl]quinazolin-4-amine] was tested. Which pIC50 [1] did it give?
Answer: The pIC50 was 6.12.

Question: What about the pIC50 [2] of the same compound?
Answer: Its pIC50 is 6.20.

Question: `COc1cc2nc(C)nc(NC(C)c3ccc(-c4ccccc4CN4CC(O)C4)s3)c2cc1OC` (centres unmarked) [Example 312, 1-[2-(5-{1-[(6,7-dimethoxy-2-methylquinazolin-4-yl)amino]ethyl}thiophen-2-yl)benzyl]azetidin-3-ol] was tested. Which pIC50 [1] did it give?
Answer: Its pIC50 is 7.17.

Question: What about the pIC50 [2] of the same compound?
Answer: The pIC50 was 7.14.

Question: How did the pIC50 [1] turn out when `COc1cc2nc(C)nc(NC(C)c3ccc(-c4ccccc4CN4CC5(CNC(=O)N5)C4)s3)c2cc1OC` (centres unmarked) [Example 313, 2-[2-(5-{1-[(6,7-dimethoxy-2-methylquinazolin-4-yl)amino]ethyl}thiophen-2-yl)benzyl]-2,5,7-triazaspiro[3.4]octan-6-one] was run?
Answer: The pIC50 was 6.78.

Question: What about the pIC50 [2] of the same compound?
Answer: The pIC50 was 6.82.

Question: `COc1cc2nc(C)nc(NC(C)c3ccc(-c4ccc(F)cc4CNC(=O)[C@@H]4CCCN4)s3)c2cc1OC` (stereo partly drawn) [Example 314, N-[2-(5-{1-[(6,7-dimethoxy-2-methylquinazolin-4-yl)amino]ethyl}thiophen-2-yl)-5-fluorobenzyl]-L-prolinamide] was tested. Which pIC50 [1] did it give?
Answer: Its pIC50 is 6.98.

Question: And the pIC50 [2]?
Answer: Its pIC50 is 7.05.

Question: `COc1cc2nc(C)nc(NC(C)c3ccc(-c4ccccc4CNCC(F)F)s3)c2cc1OC` (centres unmarked) [Example 315, N-{1-[5-(2-{[(2,2-difluoroethyl)amino]methyl}phenyl)thiophen-2-yl]ethyl}-6,7-dimethoxy-2-methylquinazolin-4-amine] was tested. Which pIC50 [1] did it give?
Answer: The pIC50 was 6.11.

Question: And the pIC50 [2]?
Answer: The pIC50 was 5.89.

Question: What does the source list for `COc1cc2nc(C)nc(NC(C)c3ccc(-c4ccccc4CN4CCC4)s3)c2cc1OC` (centres unmarked) [Example 317, N-[1-{5-[2-(azetidin-1-ylmethyl)phenyl]thiophen-2-yl}ethyl]-6,7-dimethoxy-2-methylquinazolin-4-amine]?
Answer: pIC50 [1]: 7.12; pIC50 [2]: 7.05

Question: With `COc1cc2nc(C)nc(NC(C)c3ccc(-c4ccccc4CN4CC[C@H]4CO)s3)c2cc1OC` (stereo partly drawn) [Example 318, {1-[(2S)-(5-{1-[(6,7-dimethoxy-2-methylquinazolin-4-yl)amino]ethyl}thiophen-2-yl)benzyl]azetidin-2-yl}methanol] as the compound, how does the pIC50 [1] read?
Answer: The pIC50 was 6.77.

Question: What about the pIC50 [2] of the same compound?
Answer: The pIC50 was 6.66.

Question: `COc1cc2nc(C)nc(NC(C)c3ccc(-c4ccccc4CN4CC(N(C)C)C4)s3)c2cc1OC` (centres unmarked) [Example 319, N-{1-[5-(2-{[3-(dimethylamino)azetidin-1-yl]methyl}phenyl)thiophen-2-yl]ethyl}-6,7-dimethoxy-2-methylquinazolin-4-amine] was tested. Which pIC50 [1] did it give?
Answer: Its pIC50 is 6.79.

Question: What about the pIC50 [2] of the same compound?
Answer: The pIC50 was 6.90.

Question: With `COc1cc2nc(C)nc(NC(C)c3ccc(-c4ccccc4CN4CC(F)(F)C4)s3)c2cc1OC` (centres unmarked) [Example 320, N-[1-(5-{2-[(3,3-difluoroazetidin-1-yl)methyl]phenyl}thiophen-2-yl)ethyl]-6,7-dimethoxy-2-methylquinazolin-4-amine] as the compound, how does the pIC50 [1] read?
Answer: Its pIC50 is 5.65.

Question: What about the pIC50 [2] of the same compound?
Answer: The pIC50 was 5.46.

Question: What does the source list for `COc1cc2nc(C)nc(NC(C)c3ccc(-c4ccccc4CN(C)CC(F)(F)F)s3)c2cc1OC` (centres unmarked) [Example 321, 6,7-di methoxy-2-methyl-N-{1-[5-(2-{[methyl(2,2,2-trifluoroethyl)amino]methyl}phenyl)thiophen-2-yl]ethyl}quinazolin-4-amine]?
Answer: pIC50 [1]: 4.83; pIC50 [2]: 4.89

Question: Which results are given for `COc1cc2nc(C)nc(NC(C)c3ccc(-c4ccccc4CN4CC(F)C4)s3)c2cc1OC` (centres unmarked) [Example 322, N-[1-(5-{2-[(3-fluoroazetidin-1-yl)methyl]phenyl}thiophen-2-yl)ethyl]-6,7-dimethoxy-2-methylquinazolin-4-amine]?
Answer: pIC50 [1]: 6.39; pIC50 [2]: 6.57

Question: With `COc1cc2nc(C)nc(NC(C)c3ccc(-c4ccc(Cl)cc4CN(C)C)s3)c2cc1OC` (centres unmarked) [Example 323, N-[1-(5-{4-chloro-2-[(dimethylamino)methyl]phenyl}thiophen-2-yl)ethyl]-6,7-dimethoxy-2-methylquinazolin-4-amine] as the compound, how does the pIC50 [1] read?
Answer: The pIC50 was 7.40.

Question: What about the pIC50 [2] of the same compound?
Answer: Its pIC50 is 7.18.

Question: How did the pIC50 [1] turn out when `COc1cc2nc(C)nc(NC(C)c3ccc(-c4ccccc4C(C)=O)s3)c2cc1OC` (centres unmarked) [Example 324, 1-[2-(5-{1-[(6,7-dimethoxy-2-methylquinazolin-4-yl)amino]ethyl}thiophen-2-yl)phenyl]ethanone] was run?
Answer: Its pIC50 is 5.89.

Question: What about the pIC50 [2] of the same compound?
Answer: The pIC50 was 5.16.

Question: What does the source list for `COc1cc2nc(C)nc(NC(C)c3ccc(-c4ccccc4OCCN4CCCC4)s3)c2cc1OC` (centres unmarked) [Example 325, 6,7-di methoxy-2-methyl-N-[1-(5-{2-[2-(pyrrolidin-1-yl)ethoxy]phenyl}thiophen-2-yl)ethyl]quinazolin-4-amine]?
Answer: pIC50 [1]: 6.64; pIC50 [2]: 6.36

Question: `COc1cc2nc(C)nc(NC(C)c3cccc4sc(C)cc34)c2cc1OC` (centres unmarked) [Example 330, 6,7-dimethoxy-2-methyl-N-[1-(2-methyl-1-benzothiophen-4-yl)ethyl]quinazolin-4-amine] was tested. Which pIC50 [1] did it give?
Answer: Its pIC50 is 6.64.

Question: What about the pIC50 [2] of the same compound?
Answer: Its pIC50 is 6.26.

Question: How did the pIC50 [1] turn out when `COc1cc2nc(C)nc(NC(C)c3ccnc4sccc34)c2cc1OC` (centres unmarked) [Example 331, 6,7-dimethoxy-2-methyl-N-[1-(thieno[2,3-b]pyridin-4-yl)ethyl]quinazolin-4-amine] was run?
Answer: Its pIC50 is 6.04.

Question: And the pIC50 [2]?
Answer: Its pIC50 is 5.50.

Question: Which results are given for `COc1cc2nc(C)nc(NC(C)c3cncc4sccc34)c2cc1OC` (centres unmarked) [Example 332, 6,7-dimethoxy-2-methyl-N-[1-(thieno[2,3-c]pyridin-4-yl)ethyl]quinazolin-4-amine]?
Answer: pIC50 [1]: 5.65; pIC50 [2]: 4.94

Question: With `COc1cc2nc(C)nc(NC(C)c3nccc4sccc34)c2cc1OC` (centres unmarked) [Example 333, 6,7-dimethoxy-2-methyl-N-[1-(thieno[3,2-c]pyridin-4-yl)ethyl]quinazolin-4-amine] as the compound, how does the pIC50 [1] read?
Answer: Its pIC50 is 4.89.

Question: What about the pIC50 [2] of the same compound?
Answer: Its pIC50 is 4.83.

Question: How did the pIC50 [1] turn out when `COc1cc2nc(C)nc(N[C@H](C)c3cccc(-c4c(C)n[nH]c4C)c3)c2cc1OC` [Example 334, N-{(1R)-1-[3-(3,5-dimethyl-1H-pyrazol-4-yl)phenyl]ethyl}-6,7-dimethoxy-2-methylquinazolin-4-amine] was run?
Answer: The pIC50 was 6.44.

Question: What about the pIC50 [2] of the same compound?
Answer: Its pIC50 is 5.85.

Question: `COc1cc2nc(C)nc(N[C@H](C)c3cccc(-c4cn[nH]c4C)c3)c2cc1OC` [Example 335, 6,7-dimethoxy-2-methyl-N-{(1R)-1-[3-(5-methyl-1H-pyrazol-4-yl)phenyl]ethyl}quinazolin-4-amine] was tested. Which pIC50 [1] did it give?
Answer: The pIC50 was 6.84.

Question: What about the pIC50 [2] of the same compound?
Answer: Its pIC50 is 6.25.

Question: `COc1cc2nc(C)nc(N[C@H](C)c3cccc(-c4c(C)noc4C)c3)c2cc1OC` [Example 336, N-{(1R)-1-[3-(3,5-dimethyl-1,2-oxazol-4-yl)phenyl]ethyl}-6,7-dimethoxy-2-methyl-quinazolin-4-amine] was tested. Which pIC50 [1] did it give?
Answer: The pIC50 was 6.16.

Question: And the pIC50 [2]?
Answer: The pIC50 was 5.70.

Question: How did the pIC50 [1] turn out when `COc1cc2nc(C)nc(N[C@H](C)c3cccc(-c4ccn[nH]4)c3)c2cc1OC` [Example 337, 6,7-dimethoxy-2-methyl-N-{(1R)-1-[3-(1H-pyrazol-5-yl)phenyl]ethyl}quinazolin-4-amine] was run?
Answer: Its pIC50 is 6.46.

Question: And the pIC50 [2]?
Answer: Its pIC50 is 5.87.

Question: With `COc1cc2nc(C)nc(N[C@H](C)c3cccc(-c4cnn(C)c4)c3)c2cc1OC` [Example 338, 6,7-dimethoxy-2-methyl-N-{(1R)-1-[3-(1-methyl-1H-pyrazol-4-yl)phenyl]ethyl}quinazolin-4-amine] as the compound, how does the pIC50 [1] read?
Answer: The pIC50 was 6.49.

Question: And the pIC50 [2]?
Answer: Its pIC50 is 5.86.

Question: With `COc1cc2nc(C)nc(N[C@H](C)c3cccc(-c4ccnn4C)c3)c2cc1OC` [Example 339, 6,7-dimethoxy-2-methyl-N-{(1R)-1-[3-(1-methyl-1H-pyrazol-5-yl)phenyl]ethyl}quinazolin-4-amine] as the compound, how does the pIC50 [1] read?
Answer: The pIC50 was 6.09.

Question: What about the pIC50 [2] of the same compound?
Answer: Its pIC50 is 5.70.

Question: `COc1cc2nc(C)nc(N[C@H](C)c3cccc(-n4ccnc4)c3)c2cc1OC` [Example 340, N-{(1R)-1-[3-(1H-imidazol-1-yl)phenyl]ethyl}-6,7-dimethoxy-2-methylquinazolin-4-amine] was tested. Which pIC50 [1] did it give?
Answer: Its pIC50 is 6.46.

Question: What about the pIC50 [2] of the same compound?
Answer: Its pIC50 is 5.86.
